Holding throughout (assay type): cell-based
For experiment [1], the system named is alpha-smooth muscle actin (α-SMA). The experiment can be described thus: Inhibition of TGF-β induced expression of alpha-smooth muscle actin in CFSC cells (western blot). The conditions noted are these: compound at 10 μM, TGF-β (10 ng/mL), 24 hours. How it is done: The ability of a compound to inhibit the TGF-β induced expression of alpha-smooth muscle actin (α-SMA) was evaluated in CCl4-treated fat storing (CFSC) cells. α-SMA is considered as a reliable marker of hepatic stellate cell activation and a key biomarker for liver fibrosis.
CFSC cells maintained in a DMEM medium supplemented with 10% fetal bovine serum were seeded to 12-well culture dishes and grown to a confluence of 60-70% the next day. Culture was changed to a serum-free DMEM medium and the cells were treated with the compound at 10 μM in the presence of TGF-β (10 ng/mL). The cells were incubated for another 24 hours. All culture was maintained at 37° C. in 5% carbon dioxide.
An NP-40 lysate solution (50 mM Tris, pH 7.4, 150 mM NaCl, 1% NP-40) with EDTA free cocktail added was used to lyse the cells on ice for 30 min. The lysate was collected and centrifuged at 4° C. for 10 min at 12,000 rpm. The pellet was discarded and the supernatant was transferred to a new tube. The cell lysate was loaded with 5× loading buffer and boiled for 10 min, resolved by 10% SDS-polyacrylamide gel electrophoresis (SDS-PAGE), and transferred to a PVDF membrane. The membrane was blocked with 5% skim milk in Tris-buffered saline and TWEEN® 20 (TBST; 10 mM Tris-HCl, pH 8.0, 150 mM NaCl, 0.1% TWEEN® 20) for 1 h at room temperature and then incubated with α-SMA and β-actin antibodies overnight at 4° C. After washing twice with TBST, the membrane was probed with a […] anti-immunoglobulin (1:5000 dilution) for 1 h at room temperature. After two subsequent rinses in TBST, immunoreactive products were reacted with ECL and visualized by a UVP CHEMSTUDIO™ imaging system. The western blotting bands are quantitated using an ImageJ software. The percentage of inhibition was obtained by calculating the percentage decrease in the band intensity compared to the one treated with TGF-β only.
The results are summarized in Table 1, where A represents a value no less than 80/% inhibition, B represents a value less than 80% but no less than 50% inhibition, C represents a value less than 50% but no less than 30% inhibition, and D represents a value less than 30% inhibition with a compound at 10 μM.

Experiment [2] deals with A549 (lung adenocarcinoma). The experiment can be described thus: Antiproliferative activity, CCK-8 cell viability. The conditions noted are these: Homo sapiens, 72 h, read-out: Inhibition of Cancerous Cells, A549. How it is done:
(§1) The antiproliferative activity of a compound was determined in the following cell lines: MDA-MB-231 (breast cancer), HepG2 (liver cancer), SW480 (colon cancer), B16F10 (malignant melanoma), A431 (epidermoid carcinoma), A549 (lung adenocarcinoma), and HeLa (cervical cancer). MDA-MB-231, HepG2, SW480, B16F10, and A431 cells were cultured in Dulbecco's modified Eagle's medium (DMEM) containing 10% fetal bovine serum (FBS). HeLa cells were cultured in MEM/EBSS (MEM) containing 10% FBS. A549 cells were maintained in Kaighn's modification of Ham's F-12 medium containing 10% FBS. The Cell Counting Kit-8 (CCK-8) assay was used to determine the cell viability of cells following treatment with the compound.
(§2) Briefly, cells were seeded in a 96-well plate at a density of 2,000-5,000 cells/well. Following attachment, the cells were treated with the compound in media at a compound concentration of 3.3 μM, 10 μM, or 30 μM, or DMSO as a control. After the cells were incubated at 37° C. for 72 h, the CCK-8 solution (10 μL) was added to each well. After incubation at 37° C. for 4 h, the absorbance value of each well was determined using a multi-well plate reader at 450 nm. The percentage of cell viability was determined with respect to the DMSO-treated cells. The results were summarized in Table 2-4 below, wherein A represents no less than 50% inhibition of cell growth; B represents less than 50% but no less than 30% inhibition of cell growth; C represents less than 30% inhibition of cell growth.

Experiment [3] concerns B16F10 (malignant melanoma). The experiment can be described thus: Antiproliferative activity, CCK-8 cell viability. The conditions noted are these: Mus musculus, B16-F10, 72 h, read-out: Inhibition of Cancerous Cells, B16F10. How it is done:
as §1, §2

Experiment [4] concerns MDA-MB-231 (breast cancer). The experiment can be described thus: Antiproliferative activity, CCK-8 cell viability. The note with it: Homo sapiens, 72 h, read-out: Inhibition of Cancerous Cells, MDA-MB-231. How it is done:
as §1, §2

A further experiment relates to SW480 (colon cancer). The experiment can be described thus: Antiproliferative activity, CCK-8 cell viability. The note with it: Homo sapiens, 72 h, read-out: Inhibition of Cancerous Cells, SW480. How it is done:
as §1, §2

The next experiment has as its system HeLa (cervical cancer). The experiment can be described thus: Antiproliferative activity, CCK-8 cell viability. The conditions noted are these: Homo sapiens, 72 h, read-out: Inhibition of Cancerous Cells, HELA. How it is done: as §1, §2
For a further experiment, the system named is HepG2 (liver cancer). As to the kind of experiment: Antiproliferative activity, CCK-8 cell viability. The conditions noted are these: Homo sapiens, 72 h, read-out: Inhibition of Cancerous Cells, HepG2. The procedure:
as §1, §2

Where [5] appears, read: compound concentration of 3.3 μM.
Setting [6] is: compound concentration of 10 μM.
The mark [7] stands for this setting: compound concentration of 30 μM.

`CC1=C(CC(=O)O)c2cc(F)ccc2/C1=C\c1ccc(COc2ccc(F)cc2)cc1` [Compound A1, 2-[(1Z)-5-Fluoro-1-(4-((4-fluorophenoxy)methyl)benzylidene)-2-methyl-1H-inden-3-yl]-acetic acid] displayed an inhibition at 10 µM in experiment [1] of at least 80%.
Still for that read-out and setting: next, `CC1=C(CC(=O)O)c2cc(F)ccc2/C1=C\c1ccc(OCc2ccccc2)cc1` [Compound A2, 2-[(1Z)-5-Fluoro-1-(4-(benzyloxy)benzylidene)-2-methyl-1H-inden-3-yl]-acetic acid]: at least 80%.
On the same count and under the same terms, next, `CC1=C(CC(=O)O)c2cc(F)ccc2/C1=C\c1ccc(F)cc1OCc1ccccc1` [Compound A7, 2-[(1Z)-1-{[2-(Benzyloxy)-4-fluorophenyl]methylidene}-5-fluoro-2-methyl-1H-inden-3-yl]acetic acid]: below 30%; `CC1=C(CC(=O)O)c2cc(F)ccc2/C1=C\c1ccc(COc2ccc(F)cc2)cc1C(F)(F)F` [Compound A14, 2-[(1Z)-5-Fluoro-1-({4-[(4-fluorophenoxy)methyl]-2-(trifluoromethyl)phenyl}-methylidene)-2-methyl-1H-inden-3-yl]acetic acid]: at least 80%.
Still for that read-out and setting: to `CC1=C(CC(=O)N(C)O)c2cc(F)ccc2/C1=C\c1ccc(C2CC2)cc1` [Compound B3, (Z)-2-(1-(4-Cyclopropylbenzylidene)-5-fluoro-2-methyl-1H-inden-3-yl)-N-hydroxy-N-methylacetamide] belongs at least 80%.
The molecule `CON(C)C(=O)CC1=C(C)/C(=C/c2ccc(C(C)(C)C)cc2)c2ccc(F)cc21` [Compound B4, (Z)-2-(1-(4-(Tert-butyl)benzylidene)-5-fluoro-2-methyl-1H-inden-3-yl)-N-methoxy-N-methylacetamide] showed an inhibition at 10 µM in experiment [1] of at least 80%.
Same read-out and setting: to `CC1=C(CC(=O)N(C)O)c2cc(F)ccc2/C1=C\c1ccc(C)c2ccccc12` [Compound C1, (Z)-2-(5-Fluoro-2-methyl-1-((4-methylnaphthalen-1-yl)methylene)-1H-inden-3-yl)-N-hydroxy-N-methylacetamide] belongs 50 to 80%.
In experiment [1], `CC1=C(CC(=O)NO)c2cc(F)ccc2/C1=C\c1ccc(C)c2ccccc12` [Compound C2, (Z)-2-(5-Fluoro-2-methyl-1-((4-methylnaphthalen-1-yl)methylene)-1H-inden-3-yl)-N-hydroxyacetamide] gave an inhibition at 10 µM of at least 80%.
In experiment [1], `CC1=C(CC(=O)O)c2cc(F)ccc2/C1=C\c1ccc(Br)c2ccccc12` [Compound C3, (Z)-2-(1-((4-Bromonaphthalen-1-yl)methylene)-5-fluoro-2-methyl-1H-inden-3-yl)acetic acid] came in with an inhibition at 10 µM of at least 80%.
`CC1=C(CC(=O)NO)c2cc(F)ccc2/C1=C\c1ccc(Br)c2ccccc12` [Compound C4, (Z)-2-(1-((4-Bromonaphthalen-1-yl)methylene)-5-fluoro-2-methyl-1H-inden-3-yl)-N-hydroxyacetamide] gave an inhibition at 10 µM in experiment [1] of at least 80%.
The same measure, in the same setting: to `CC1=C(CC(=O)O)c2cc(F)ccc2/C1=C\c1ccnc2ccccc12` [Compound C5, (Z)-2-(5-Fluoro-2-methyl-1-(quinolin-4-ylmethylene)-1H-inden-3-yl)acetic acid] belongs at least 80%; to `CC1=C(CC(=O)NO)c2cc(F)ccc2/C1=C\c1ccnc2ccccc12` [Compound C6, (Z)-2-(5-Fluoro-2-methyl-1-(quinolin-4-ylmethylene)-1H-inden-3-yl)-N-hydroxyacetamide], at least 80%.
On the same count and under the same terms, to `CC1=C(CC(=O)NO)c2cc(F)ccc2/C1=C\c1ccc(Oc2ccc(C(C)C)cc2)cc1` [Compound D1, 2-[(1Z)-5-Fluoro-2-methyl-1-({4-[4-(propan-2-yl)phenoxy]phenyl}methylidene)-1H-inden-3-yl]-N-hydroxyacetamide] belongs at least 80%; to `CC1=C(CC(=O)O)c2cc(F)ccc2/C1=C\c1ccc(Oc2cccc(C(C)(C)C)c2)cc1` [Compound D3, 2-[(1Z)-5-Fluoro-2-methyl-1-({4-[3-(tert-butyl)phenoxy]phenyl}methylidene)-1H-inden-3-yl]acetic acid], at least 80%; to `CC1=C(CC(=O)O)c2cc(F)ccc2/C1=C\c1ccc(Oc2ccc(C)c(F)c2)cc1` [Compound D4, 2-[(1Z)-5-Fluoro-2-methyl-1-({4-[3-fluoro-4-methylphenoxy]phenyl}-methylidene)-1H-inden-3-yl]acetic acid], at least 80%.
In experiment [1], `CC1=C(CC(=O)O)c2cc(F)ccc2/C1=C\c1ccc(Oc2cccc([N+](=O)[O-])c2)cc1` [Compound D6, 2-[(1Z)-5-Fluoro-2-methyl-1-({4-[3-nitrophenoxy]phenyl}methylidene)-1H-inden-3-yl]acetic acid] gave an inhibition at 10 µM below 30%.
Turning to `O=C(O)CC1=C/C(=C/c2ccc(Oc3ccc(F)cc3)cc2)c2ccccc21` [Compound D32, 2-[(1Z)-1-{[4-(4-Fluorophenoxy)phenyl]methylidene}-1H-inden-3-yl]acetic acid], the inhibition at 3.3 µM in experiment [2] (setting [5]) is below 30%; in experiment [3] (setting [5]), below 30%; in experiment [4] (setting [5]), below 30%; in the experiment with SW480 (colon cancer) (setting [5]), below 30%; in the experiment on HeLa (cervical cancer) (setting [5]) it was 30 to 50%; with HepG2 (liver cancer) (setting [5]) it was at least 50%. Also, the inhibition at 10 µM in experiment [2] (setting [6]) was below 30%; in experiment [3] (setting [6]), 30 to 50%; in experiment [4] (setting [6]), below 30%; in the experiment on SW480 (colon cancer) (setting [6]) it was below 30%; in the experiment with HeLa (cervical cancer) (setting [6]), 30 to 50%; in the experiment on HepG2 (liver cancer) (setting [6]), at least 50%. Further, the inhibition at 30 µM in experiment [2] (setting [7]) is 30 to 50%; in experiment [3] (setting [7]), at least 50%; in experiment [4] (setting [7]) it was 30 to 50%; in the experiment on SW480 (colon cancer) (setting [7]), below 30%; in the experiment on HeLa (cervical cancer) (setting [7]), at least 50%; with HepG2 (liver cancer) (setting [7]) it was at least 50%.

By inhibition is commonly meant the change of the read-out against control, counted positive when it falls.

These data come from patent US20240116845A1, “INDENE COMPOUNDS, PHARMACEUTICAL COMPOSITIONS THEREOF, AND THEIR THERAPEUTIC APPLICATIONS” (NucMito Pharmaceuticals Co., Ltd., priority 2021, published 2024).
